Assay results as given in PMC10941186, “Real-Time Biosynthetic Reaction Monitoring Informs the Mechanism of Action of Antibiotics” (Journal of the American Chemical Society, 2024).

What was measured:
Format in all cases: biochemical
UppP = biological target: T1, UppP (Escherichia coli, UniProt P60932); experiment: native mass spectrometry, real-time reaction monitoring
T1 construct: expressed and purified from E. coli membranes, LDAO micelles, delipidated for activity
T1 sequence (P60932 1-273): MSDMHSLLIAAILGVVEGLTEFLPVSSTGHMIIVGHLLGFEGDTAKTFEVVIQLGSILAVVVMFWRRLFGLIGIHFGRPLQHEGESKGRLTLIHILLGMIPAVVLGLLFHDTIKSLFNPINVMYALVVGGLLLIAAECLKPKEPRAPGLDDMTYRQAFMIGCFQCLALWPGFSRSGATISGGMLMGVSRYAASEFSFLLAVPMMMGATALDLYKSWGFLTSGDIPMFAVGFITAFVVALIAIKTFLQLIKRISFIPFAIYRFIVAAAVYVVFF

PgpB^Ec = biological target: T2, PgpB^Ec (Escherichia coli, UniProt P0A924); experiment: as above
T2 construct: expressed and purified from E. coli membranes, LDAO micelles; monomer; tag details not given (PgpB-his plasmid used in cells)
T2 sequence (P0A924 2-254): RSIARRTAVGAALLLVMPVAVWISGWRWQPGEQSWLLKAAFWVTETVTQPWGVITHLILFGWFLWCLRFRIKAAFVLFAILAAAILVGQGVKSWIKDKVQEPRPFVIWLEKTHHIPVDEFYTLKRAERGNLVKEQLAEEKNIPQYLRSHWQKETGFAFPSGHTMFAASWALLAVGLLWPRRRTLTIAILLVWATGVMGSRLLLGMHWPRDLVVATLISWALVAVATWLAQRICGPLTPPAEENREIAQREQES

PgpB^Bs = biological target: T3, PgpB^Bs (Bacillus subtilis, UniProt O34349); experiment: as above
T3 construct: expressed in E. coli, purified, LDAO micelles; monomer; tag details not given
T3 sequence (O34349 1-203): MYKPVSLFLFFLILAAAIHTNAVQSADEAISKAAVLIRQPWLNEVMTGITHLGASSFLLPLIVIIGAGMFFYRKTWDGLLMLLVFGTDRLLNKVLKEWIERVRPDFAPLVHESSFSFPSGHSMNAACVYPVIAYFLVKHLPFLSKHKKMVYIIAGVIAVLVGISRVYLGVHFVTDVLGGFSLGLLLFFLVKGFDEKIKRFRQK

YbjG = biological target: T4, YbjG (Escherichia coli, UniProt P75806); experiment: thin-layer chromatography phosphatase assay; conditions: unaffected by EDTA or CaCl2
T4 construct: construct details only in supplement
T4 sequence (P75806 1-198): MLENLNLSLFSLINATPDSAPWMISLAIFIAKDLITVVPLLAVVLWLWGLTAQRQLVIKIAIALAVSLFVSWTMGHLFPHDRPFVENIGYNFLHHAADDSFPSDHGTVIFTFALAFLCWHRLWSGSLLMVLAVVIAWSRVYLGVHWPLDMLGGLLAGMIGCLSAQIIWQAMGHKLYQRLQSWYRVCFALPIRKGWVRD

[1] = within 1 min, only enzyme-product complexes seen

CC(C)=CCC/C(C)=C/CC/C(C)=C/COP(=O)(O)OP(=O)(O)O [C15-PP]
native mass spectrometry, real-time reaction monitoring (UppP; 3.5 uM delipidated protein, 50 uM C15-PP): peaks corresponding to ligand-free UppP and multiple enzyme–substrate complexes (UppP)(C15-PP)n

CCCCCCCC/C=C\CCCCCCCC(=O)OC[C@H](COP(=O)(O)O)OC(=O)CCCCCCC/C=C\CCCCCCCC [DGP, 1,2-dioleoylglycerol monophosphate]
native mass spectrometry, real-time reaction monitoring (PgpB^Ec; product formed in situ from DGPP, ternary complex with DGPP): ternary complex formed by PgpB^Ec with the substrate DGPP and the monophosphorylated product DGP

CC(C)=CCC/C(C)=C/CC/C(C)=C/CC/C(C)=C\CC/C(C)=C\CC/C(C)=C\CC/C(C)=C\CC/C(C)=C\CC/C(C)=C\CC/C(C)=C\CC/C(C)=C\COP(=O)(O)O [C55-P]
native mass spectrometry, real-time reaction monitoring (UppP; product formed in situ from C55-PP): only the C55-P product was observed in complex with the protein

CCCCCCCC/C=C\CCCCCCCC(=O)OC[C@H](COP(=O)(O)OP(=O)(O)O)OC(=O)CCCCCCC/C=C\CCCCCCCC [DGPP, 1,2-dioleoylglycerol diphosphate]
native mass spectrometry, real-time reaction monitoring (PgpB^Ec; 3.5 uM protein, 10 uM DGPP, stoichiometries 1:1 to 1:4, activity independent of divalent cations): DGPP incubated with PgpB^Ec exhibited intense peaks corresponding to the enzyme–substrate and enzyme–product complexes
native mass spectrometry, real-time reaction monitoring (PgpB^Bs; [1]): peaks assigned to enzyme–product complexes with no residual substrate
native mass spectrometry, real-time reaction monitoring (UppP; poorly processed substrate): The resultant spectra are dominated by peaks assigned to the bound substrate.

CCCCCCCC/C=C\CCCCCCCC(=O)OC[C@@H](O)COP(=O)(O)O [LPA]
native mass spectrometry, real-time reaction monitoring (PgpB^Bs; 3.5 uM protein with 50 uM LPA, 5 uM with 20 uM (Figure 2C)): The resulting spectra exhibited a progressive loss of protein-bound LPA as a function of time

CC(C)=CCC/C(C)=C/CC/C(C)=C/CC/C(C)=C/CC/C(C)=C/CC/C(C)=C/CC/C(C)=C/CC/C(C)=C/CC/C(C)=C/CC/C(C)=C/CC/C(C)=C/COP(=O)(O)OP(=O)(O)O [C55-PP]
thin-layer chromatography phosphatase assay (YbjG): the activity of YbjG against C55-PP is unaffected by EDTA or CaCl2
native mass spectrometry, real-time reaction monitoring (PgpB^Ec; 3.5 uM protein, 10 uM C55-PP, slowly processed): we observe intense binding of C55-PP molecules to the enzyme
native mass spectrometry, real-time reaction monitoring (PgpB^Bs; [1]): We next examined the activity of PgpB of B. subtilis (PgpB^Bs) toward DGPP and C55-PP
